# According to patent US11638718B2, “Treatment of alphavirus-induced inflammation” (priority 2016, dated 2023):
# Marks after values point to notes of the source that are not given here.
# Columns and labels:
# [1] = tested on: chikungunya virus (CHIKV); assay: CHIKV viral load: plaque assay on Vero cells and E2 qPCR; type: in vivo, C57BL/6 mice; conditions: CHIKV-infected, days 1, 3 and 7 p.i.
# Ross River virus (RRV) [2] = assay: H&E histology of quadriceps muscle and joint inflammation, RRV-infected mice
# [3] = humans, periods greater than 12 months (ref 53); cited from earlier work
# [4] = tested on: cartilage matrix genes in joint tissues of RRV-infected mice; assay: Real-time PCR of cartilage matrix genes in joint tissues, acute RRV infection
# Ross River virus (RRV) [5] = assay: RRV viral load: plaque assay on Vero cells and nsP3 qPCR; type: in vivo, C57BL/6 mice
# [6] = tested on: chikungunya virus (CHIKV); assay: CHIKV-induced footpad swelling and joint histology in mice; type: in vivo, C57BL/6 mice
# [7] = tested on: chikungunya virus (CHIKV); assay: Serum soluble factors by multiplex, CHIKV-infected mice
# Ross River virus (RRV) [8] = assay: Long-term oral PPS treatment of RRV-infected mice: clinical signs, joint gene expression
# Ross River virus (RRV) [9] = assay: Serum soluble factors by multiplex bead array, RRV-infected mice
# Ross River virus (RRV) [10] = assay: Detection of leukocyte infiltrates in quadriceps by flow cytometry, RRV-infected mice
# Ross River virus (RRV) [11] = assay: Masson's trichrome and Safranin O/Fast Green histology of muscle, cartilage and epiphyseal plate, RRV-infected mice; conditions: day 10 p.i.
# Ross River virus (RRV) [12] = assay: RRV-induced disease in mice: clinical score and weight; type: in vivo, C57BL/6 mice; conditions: RRV-infected mice, PPS 3 mg/kg i.p. daily vs vehicle
# alphavirus = conditions: earlier studies by the group (refs 30, 55-57); cited from earlier work
# [13] = peak disease (day 10 p.i.), not at the early stages
# [14] = RRV + PPS, long-term oral treatment, joint tissue
# [15] = long-term oral PPS, RRV-infected
substance,measurement,setting,value
pentosan polysulfate [PPS],kinetics of virus infection (plaque assay),[1],did not affect the kinetics of virus infection
same,infiltrating cells in muscle and joint tissues (H&E),"Ross River virus (RRV) [2]; RRV-infected, PPS 3 mg/kg i.p. daily, day 7 and 10 p.i.",markedly reduced numbers of infiltrating cells
same,inflammation in quadriceps muscle or ankle joint,Ross River virus (RRV) [2]; mock-infected PPS-treated mice,No inflammation was observed
same,tolerability of long-term clinical use,[3],extremely well tolerated
same,BMP-1 expression,"[4]; RRV-infected, PPS 3 mg/kg i.p.",unaffected
same,TGF-β1 expression,"[4]; RRV-infected, PPS 3 mg/kg i.p.",unaffected
same,aggrecan expression increase caused by RRV,"[4]; RRV-infected, PPS 3 mg/kg i.p.",largely reduced
same,collagen I expression increase caused by RRV,"[4]; RRV-infected, PPS 3 mg/kg i.p.",largely reduced
same,collagen II expression increase caused by RRV,"[4]; RRV-infected, PPS 3 mg/kg i.p.",largely reduced
same,metalloproteinases expression,"[4]; RRV-infected, PPS 3 mg/kg i.p.",unaffected
same,early expression of aggrecan,[4]; early time points p.i.,significantly reduced
same,early expression of collagen II,[4]; early time points p.i.,significantly reduced
same,ADAMTS-5 expression in joint tissue,[4]; [13],significantly reduced
same,TIMP-3 expression in joint tissue,[4]; [13],significantly reduced
same,viral titres in serum,"Ross River virus (RRV) [5]; PPS-treated vs mock-treated, all days tested, plaque assay",comparable
same,RRV titres in quadriceps muscles,"Ross River virus (RRV) [5]; PPS-treated vs mock-treated, plaque assay",comparable
same,RRV titres in ankle tissues,"Ross River virus (RRV) [5]; day 3 p.i., plaque assay",slight reduction
same,RRV titres in ankle tissues,"Ross River virus (RRV) [5]; day 7 p.i., plaque assay",comparable
same,"RRV RNA in joint tissue (qPCR), difference to mock-treated",Ross River virus (RRV) [5]; day 10 p.i.,not statistically significant
same,RRV titres in ankle tissues,"Ross River virus (RRV) [5]; day 10 p.i., plaque assay, vs mock-treated",elevated
same,joint (footpad) swelling,"[6]; CHIKV-infected mice, PPS 3 mg/kg i.p. daily",decreased the level of joint swelling
same,inflammatory cells infiltrating into the joint (H&E),"[6]; CHIKV-infected, peak swelling 3 days p.i.",reduction in inflammatory cells infiltrating into the joint
same,serum IL-10,[7]; early,early surge
same,serum CCL-2,[7]; peak disease (day 3 p.i.),reduced the levels
same,serum G-CSF,[7]; peak disease (day 3 p.i.),reduced the levels
same,serum IL-6,[7]; peak disease (day 3 p.i.),reduced the levels
same,serum IL-9,[7]; peak disease (day 3 p.i.),reduced the levels
same,Fold Change ADAMTS-4,Ross River virus (RRV) [8]; [14],0.1689**
same,Fold Change ADAMTS-5,Ross River virus (RRV) [8]; [14],0.8305
same,Fold Change Aggrecan,Ross River virus (RRV) [8]; [14],0.6105***
same,Fold Change BMP-1,Ross River virus (RRV) [8]; [14],1.4697
same,Fold Change Collagen I,Ross River virus (RRV) [8]; [14],0.4014
same,Fold Change Collagen II,Ross River virus (RRV) [8]; [14],0.1719
same,Fold Change MMP-3,Ross River virus (RRV) [8]; [14],2.5028
same,Fold Change MMP-9,Ross River virus (RRV) [8]; [14],0.8604
same,Fold Change TGF-β1,Ross River virus (RRV) [8]; [14],0.4010
same,Fold Change TIMP-3,Ross River virus (RRV) [8]; [14],0.6328
same,ADAMTS-4 expression,Ross River virus (RRV) [8]; [15],reduced
same,expression of aggrecan,Ross River virus (RRV) [8]; [15],back to base-line levels
same,joint damage,Ross River virus (RRV) [8]; [15],less joint damage
same,adverse clinical signs,"Ross River virus (RRV) [8]; oral PPS in drinking water 100 mg/L (25 mg/kg/day), 3-month duration",no adverse clinical signs
same,serum IL-10,Ross River virus (RRV) [9]; day 1 p.i.,significantly elevated
same,serum chemo-attractants factors,Ross River virus (RRV) [9]; day 1 p.i.,increased levels
same,serum IL-10,Ross River virus (RRV) [9]; day 3 p.i.,significantly elevated
same,serum CCL-2,Ross River virus (RRV) [9]; peak disease (day 10 p.i.),significantly reduced
same,serum IL-1α,Ross River virus (RRV) [9]; peak disease (day 10 p.i.),significantly reduced
same,serum IL-2,Ross River virus (RRV) [9]; peak disease (day 10 p.i.),significantly reduced
same,serum IL-6,Ross River virus (RRV) [9]; peak disease (day 10 p.i.),significantly reduced
same,serum MIP-1α,Ross River virus (RRV) [9]; peak disease (day 10 p.i.),significantly reduced
same,NK cell population in quadriceps,Ross River virus (RRV) [10]; day 7 p.i.,reductions
same,T cell population in quadriceps,Ross River virus (RRV) [10]; day 7 p.i.,reductions
same,monocyte population in quadriceps,Ross River virus (RRV) [10]; day 7 p.i.,reductions
same,numbers of CD45+ infiltrating leukocytes in quadriceps,Ross River virus (RRV) [10]; day 7 p.i.,uniformly reduced
same,NK cell population in quadriceps,Ross River virus (RRV) [10]; day 10 p.i.,decrease
same,T cell population in quadriceps,Ross River virus (RRV) [10]; day 10 p.i.,decrease
same,percentage of NK cells in quadriceps (NK cell to total cell ratio),"Ross River virus (RRV) [10]; day 10 p.i., data not shown",reduction in the overall percentage of NK cells
same,chondrocyte morphology,Ross River virus (RRV) [11],maintaining chondrocyte morphology
same,epiphyseal plate thickness,Ross River virus (RRV) [11],prevented RRV-induced thinning of the epiphyseal plate
same,loss of articular cartilage,Ross River virus (RRV) [11],preventing the loss of articular cartilage
same,"proteoglycan matrix of articular cartilage (Safranin O/Fast Green, knee joint)",Ross River virus (RRV) [11],protected the proteoglycan matrix of the articular cartilage
same,"skeletal muscle morphology (tibialis anterior, Masson's trichrome)",Ross River virus (RRV) [11],protected the morphology of striations within the skeletal muscle
same,decrease in clinical disease score,Ross River virus (RRV) [12],65%
same,disease-associated weight loss,Ross River virus (RRV) [12],protection from disease-associated weight loss
Enbrel,effect on alphavirus disease,alphavirus,suppress the antiviral response and enhance viral replication thereby worsen disease
